Tests used:
[1] = test system: Stable Pdx1 Gfp human ES cells differentiated to pancreatic progenitor stage; assay: Immunostaining (c-peptide, Neurogenin3) with confocal microscopy of hES cell derived pancreatic progenitors treated with VP for 5 days; type: cell-based; conditions: VP 1 μg/ml, compared to DMSO treated cells
Experimental: FIG. 8: hES cell derived pancreatic progenitors treated with VP for 5 days show enhanced endocrine differentiation & Insulin expression. Stable Pdx1 Gfp human ES cells were differentiated to pancreatic progenitor stage and then treated with either DMSO (control) or Verteporfin (VP, 1 μg/ml) for 5 additional days. Cultures were immuno-stained with c-peptide (light grey) and Neurogenin3 (dark grey) antibodies and imaged using confocal microscope.
Stable Pdx1 Gfp human ES cells were differentiated to pancreatic progenitor stage and then treated with either DMSO (control) or Verteporfin (VP, 1 μg/ml) for 5 additional days. Cultures were immuno-stained with c-peptide and Neurogenin3 antibodies and imaged using confocal microscopy (FIG. 8).

[2] = test system: hES cell derived pancreatic progenitors (PDX1-eGFP); assay: Immunostaining (C-peptide, Glucagon, GFP) of hES cell derived pancreatic progenitors treated with verteporfin for 5 days; type: cell-based, human
Excerpt: FIG. 7: Treating hES cell derived pancreatic progenitors with verteporfin for 5 days leads to enhanced insulin expression. Stable PDX1-eGFP human ES cells were differentiated to pancreatic progenitor stage and treated with either DMSO (controls) or Verteporfin for 5 days and immuno stained with C-peptide (white), Glucagon (dark grey) and GFP PDX1 (light grey). Verteporfin-treated progenitors show enhanced endocrine/beta cell differentiation and express higher levels of C-peptide, whereas DMSO treated cells express low levels of C-peptide and Glucagon.
(§1) The verteporfin treatment directed the pancreatic progenitors to endocrine lineage differentiation at the expense of acinar lineage.

[3] = test system: Wild type C57bl6 mouse pancreatic explants at E11.5; assay: RT-qPCR of endocrine gene expression in mouse pancreatic explants cultured ex-vivo with Verteporfin; type: cell-based; conditions: 1 μg/ml Verteporfin for 72 hours; RT-qPCR after 6 days of culture; fold change relative to Ecad expression
Experimental: FIG. 4: Inhibition of Yap1 using Verteporfin in wild type mouse pancreatic explants leads to enhanced endocrine differentiation. Wild type C57bl6 mouse pancreatic explants at E11.5 embryonic stages were cultured ex-vivo for initial 24 hrs in normal culture media supplemented with 1 ug/ml Verteporfin for 72 hours and again in normal culture media without Verteporfin for another 48 hours. The explants were analyzed by RT-qPCR for endocrine gene expression after 6 days of culture. […] This ultimately leads to enhanced endocrine differentiation as analysed for Insulin (E) and Glucagon (F) expression. Y axis: relative expression (fold change relative to Ecad expression).
Wild type C57bl6 mouse pancreatic explants at E11.5 embryonic stages were cultured ex-vivo for initial 24 hours in normal culture media supplemented with 1 μg/ml Verteporfin for 72 hours and again in normal culture media without Verteporfin for another 48 hours. The explants were analyzed by RT-qPCR for endocrine gene expression after 6 days of culture. […] Expression of these genes is characteristic of islet cell fate.

[4] = test system: hES cell derived pancreatic progenitors (PDX1 eGFP); assay: qRT PCR analysis of hES cell derived pancreatic progenitors treated with verteporfin for 4 days; type: cell-based, human; conditions: 1 μg/ml verteporfin, compared to DMSO treated control cultures
Experimental: FIG. 5: Inhibition of YAP1 in hES cell derived pancreatic progenitors leads to β-cell differentiation. (A) Outline of the 15 day protocol (modified from Rezania et al, 2010) used to generate pancreatic progenitors from human ES cells. At the end of the protocol the majority of cells express the progenitor markers PDX1 and NKX6.1. The YAP1-TEAD inhibitor Verteporfin (VP) was added to the medium during PE day 4 and the cells were treated for either 4 or 5 days. […] Y axis: relative mRNA expression as fold change.
(§2) We cultured the hES PDX1 GFP cells using a modified protocol from Rezania et al 2010 (see below for the exact protocol, outlined in FIG. 5A) that efficiently generates pancreatic progenitors mostly expressing PDX1, NKX6.1. Briefly, Hues4 hES PDX1 GFP cells were cultured on feeder-free DEF system (““DEF-CS™”, Cellectis stem cells, Cellartis AB”) until full confluency. When full confluency was reached the cells were subjected to differentiation as follows for 5 different stages to obtain insulin producing mature Beta cells.
(§3) Cells were cultured in RPMI medium with 3 μM CHIR99021 (a Wnt activator) for 1 day. During the second day the cells were treated with 100 ng/ml Activin A. For days 3 and 4 the cells were treated with 100 ng/ml Activin A along with 2% (v/v) B27.
(§4) The cultures were exposed to F12 media containing 2% B27, 2 gm/L Sodium bicarbonate along with 0.25 mM Vitamin C and 50 ng/ml FGF7 for two days.
(§5) The cultures were continued for four days in DMEM high glucose media along with 2% B27, 2 g/L Sodium bicarbonate, 0.25 mM Vitamin C, 2 ng/ml FGF7, 0.25 μM Sant1, 100 ng/ml Noggin and 2 μM Retinoic acid.
(§6) Stage 4 cells were cultured for 5 days to obtain PDX1 and NKX6.1 expressing pancreatic progenitor cells by culturing in 2% B27, 2 gm/L Sodium bicarbonate, 0.25 mM Vitamin C, 100 ng/ml Noggin and 500 nM TPB (PKC activator).
(§7) To obtain insulin expressing, MAFA positive mature Beta cells, the cultures were treated with the YAP-TEAD inhibitor Verteporfin at a concentration of 1 μg/ml in Stage 4 medium and cultured for another 4-9 days.
(§8) After culturing the cells for the first 4 stages above (around 15 days), the differentiated hES cells were enriched for PDX1 expression as they expressed GFP. These enriched pancreatic progenitor cultures were treated with the YAP1 -TEAD chemical inhibitor Verteporfin for an additional 4-5 days and checked for gene expression (stage 5). As expected from mouse studies, inhibition of YAP1 activity in the PDX1 enriched cells, using verteporfin after 4 days led to efficient and enhanced endocrine differentiation especially towards insulin producing beta cells at the expense of acinar lineage.

[5] = test system: hES cell derived pancreatic progenitors (PDX1 eGFP); assay: qRT PCR analysis of hES cell derived pancreatic progenitors treated with verteporfin for 5 days; type: cell-based, human; conditions: verteporfin 5 days
Experimental: FIG. 6: Treatment with verteporfin for 5 days leads to enhanced expression of islet specific genes. […] Expression of NKX6.1 is not altered, as it is expressed in both pancreatic progenitors and mature beta-cells. […]
as §2, §3, §4, §5, §6, §7, §8, §1

[6] = verteporfin 5 days vs DMSO, immunostaining
[7] = fold-change versus DMSO control

## Verteporfin
[1]
  Ngn3 level (immunostaining): higher levels
  c-peptide level (immunostaining): higher levels
[2]; verteporfin 5 days
  MAFA status of Insulin expressing cells: positive for MAFA
[2]; [6]
  Glucagon protein expression: enhanced
  insulin (c-peptide) protein expression: enhanced
[3]
  Arx expression: significant up-regulation
  Glucagon expression: increased expression
  Insm1 expression: significant up-regulation
  Insulin expression: increased expression
  NeuroD expression: significant up-regulation
  Neurogenin (Ngn3) expression: significant up-regulation
[4]
  CPA1 mRNA expression (exocrine gene): down-regulated
  Glucagon mRNA expression: up-regulation
  ISL-1 mRNA expression: up-regulation
  Insulin mRNA expression: up-regulation
  MAFA mRNA expression: up-regulation
  MAFB mRNA expression: up-regulation
  PTF1a mRNA expression (exocrine gene): down-regulated
[5]; compared to DMSO control cultures
  insulin mRNA levels up-regulated: 5 fold
[5]; compared to day 4 cultures
  INSM1 mRNA expression: up-regulation
  ISL1 mRNA expression: up-regulation
  MAFA mRNA expression: up-regulation
[5]; [7]
  CPA1 mRNA expression (exocrine gene): down-regulation
  Glucagon mRNA expression: down-regulation
  MAFB mRNA expression: up-regulation
  NKX6.1 mRNA expression: not altered
  Neurogenin3 (NGN3) mRNA expression: up-regulation
  PTF1a mRNA expression (exocrine gene): down-regulation

— US20180119105A1, “METHOD FOR PRODUCTION OF INSULIN-PRODUCING CELLS” (University of Copenhagen, priority 2015, published 2018)
